Laboratory results taken from ChEMBL document CHEMBL4800729 (2021).

Columns and labels:
[1] = target: Tyrosine-protein kinase SYK (Homo sapiens) (UniProt P43405); test: Syk(h) Millipore kinase panel; settings: Compound concentration 1.0 uM
[2] = target: Phosphodiesterase 3 (Homo sapiens) (UniProt Q14432+Q13370); test: Inhibition of Phosphodiesterase PDE3 at compound concentration of 10.0 uM in the Eurofins-Panlabs enzyme assay (Eurofins_assay_152000); format: protein assay; design: substrate with concentration 1.01 uM [3H] cAMP + cAMP, incubation time 20 min, incubation temperature 25 C; settings: Compound concentration 10.0 uM
[3] = target: T1, Alpha-2B adrenergic receptor (Homo sapiens) (UniProt P18089); settings: Compound concentration 10.0 uM
T1 sequence (whole entry): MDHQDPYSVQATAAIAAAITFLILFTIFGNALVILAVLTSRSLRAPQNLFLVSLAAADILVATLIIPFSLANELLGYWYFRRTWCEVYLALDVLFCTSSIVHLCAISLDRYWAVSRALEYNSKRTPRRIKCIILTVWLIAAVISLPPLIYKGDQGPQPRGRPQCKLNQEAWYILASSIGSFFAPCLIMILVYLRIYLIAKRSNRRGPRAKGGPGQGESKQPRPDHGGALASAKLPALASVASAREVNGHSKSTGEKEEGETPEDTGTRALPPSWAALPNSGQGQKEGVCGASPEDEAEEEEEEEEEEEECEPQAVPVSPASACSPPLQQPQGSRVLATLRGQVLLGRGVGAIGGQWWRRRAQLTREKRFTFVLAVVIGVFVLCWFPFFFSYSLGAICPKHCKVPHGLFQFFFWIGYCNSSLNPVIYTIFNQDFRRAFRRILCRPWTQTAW

[4] = target: Activin receptor type-1B (Homo sapiens) (UniProt P36896); test: Alk4(h) Millipore kinase panel; settings: Compound concentration 1.0 uM
Sequence of Activin receptor type-1B (Homo sapiens) (P36896 whole entry): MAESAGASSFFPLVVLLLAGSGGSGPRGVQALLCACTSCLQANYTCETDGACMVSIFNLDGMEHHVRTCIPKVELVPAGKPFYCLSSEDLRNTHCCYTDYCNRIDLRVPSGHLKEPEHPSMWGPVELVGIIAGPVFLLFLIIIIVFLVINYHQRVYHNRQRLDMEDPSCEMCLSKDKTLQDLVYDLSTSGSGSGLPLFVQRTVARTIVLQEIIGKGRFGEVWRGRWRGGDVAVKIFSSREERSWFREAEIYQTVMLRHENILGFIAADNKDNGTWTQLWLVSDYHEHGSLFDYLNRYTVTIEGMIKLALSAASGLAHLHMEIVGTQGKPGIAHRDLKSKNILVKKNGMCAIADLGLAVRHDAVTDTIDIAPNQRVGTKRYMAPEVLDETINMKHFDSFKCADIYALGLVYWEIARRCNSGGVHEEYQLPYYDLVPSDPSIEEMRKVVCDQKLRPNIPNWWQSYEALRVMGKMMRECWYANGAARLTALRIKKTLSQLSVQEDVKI

[5] = target: Phosphatidylinositol 5-phosphate 4-kinase type-2 alpha (Homo sapiens) (UniProt P48426); settings: Compound concentration 1.0 uM
[6] = target: SRSF protein kinase 3 (Homo sapiens) (UniProt Q9UPE1); test: MSSK1(h) Millipore kinase panel; settings: Compound concentration 1.0 uM
[7] = target: GABA-A receptor; anion channel; test: GPCRScan assay: inhibition of GABAA/BZP; format: protein-complex assay, Rattus norvegicus; design: radioligand conc. used [nm] 0.6 – 4.0, parental cells brain tissue
[8] = target: Serine/threonine-protein kinase ULK3 (Homo sapiens) (UniProt Q6PHR2); test: ULK3(h) Millipore kinase panel; settings: Compound concentration 1.0 uM
[9] = target: Mast/stem cell growth factor receptor Kit (Homo sapiens) (UniProt P10721); test: cKit(h) Millipore kinase panel; settings: Compound concentration 1.0 uM
[10] = target: Epidermal growth factor receptor (Homo sapiens) (UniProt P00533); test: EGFR(h) Millipore kinase panel; settings: Compound concentration 1.0 uM
[11] = target: Aurora kinase A (Homo sapiens) (UniProt O14965); test: Aurora_A(h) Millipore kinase panel; settings: Compound concentration 1.0 uM
Sequence of Aurora kinase A (Homo sapiens) (O14965 whole entry): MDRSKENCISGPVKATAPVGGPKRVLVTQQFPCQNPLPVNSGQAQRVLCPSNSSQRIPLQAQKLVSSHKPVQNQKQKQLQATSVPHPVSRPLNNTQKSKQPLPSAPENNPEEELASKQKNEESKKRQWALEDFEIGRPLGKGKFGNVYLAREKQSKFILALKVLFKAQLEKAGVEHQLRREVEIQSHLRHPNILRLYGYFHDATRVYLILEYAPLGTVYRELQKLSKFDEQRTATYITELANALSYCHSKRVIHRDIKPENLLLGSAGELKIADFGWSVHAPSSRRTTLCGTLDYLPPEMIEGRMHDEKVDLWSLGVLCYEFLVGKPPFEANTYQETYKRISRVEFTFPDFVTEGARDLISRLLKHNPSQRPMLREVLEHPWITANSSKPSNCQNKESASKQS

[12] = target: 5-hydroxytryptamine receptor 1B (Homo sapiens, UniProt P28222); settings: Compound concentration 10.0 uM
[13] = target: Serine/threonine-protein kinase VRK2 (Homo sapiens) (UniProt Q86Y07); test: VRK2(h) Millipore kinase panel; settings: Compound concentration 1.0 uM
Sequence of Serine/threonine-protein kinase VRK2 (Homo sapiens) (Q86Y07 whole entry): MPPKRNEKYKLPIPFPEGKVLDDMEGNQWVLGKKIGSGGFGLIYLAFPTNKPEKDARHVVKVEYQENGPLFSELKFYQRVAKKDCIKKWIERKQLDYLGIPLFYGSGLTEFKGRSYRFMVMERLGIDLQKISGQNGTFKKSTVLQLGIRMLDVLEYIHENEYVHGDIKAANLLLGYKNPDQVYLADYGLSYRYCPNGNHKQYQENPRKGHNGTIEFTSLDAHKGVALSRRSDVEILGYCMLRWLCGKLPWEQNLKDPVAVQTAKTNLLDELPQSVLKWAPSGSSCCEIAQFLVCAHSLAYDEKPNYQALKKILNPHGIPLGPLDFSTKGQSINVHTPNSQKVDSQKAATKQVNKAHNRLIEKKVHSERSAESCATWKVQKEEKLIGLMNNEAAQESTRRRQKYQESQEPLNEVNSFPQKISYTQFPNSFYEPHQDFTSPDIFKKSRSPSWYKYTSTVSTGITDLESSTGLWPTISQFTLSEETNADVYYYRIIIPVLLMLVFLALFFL

[14] = target: Mitogen-activated protein kinase kinase kinase 5 (Homo sapiens) (UniProt Q99683); test: ASK1(h) Millipore kinase panel; settings: Compound concentration 1.0 uM
[15] = target: Serine/threonine-protein kinase BRSK2 (Homo sapiens) (UniProt Q8IWQ3); test: BrSK2(h) Millipore kinase panel; settings: Compound concentration 1.0 uM
[16] = target: Muscarinic acetylcholine receptor M5 (Homo sapiens) (UniProt P08912); settings: Compound concentration 10.0 uM
[17] = target: B2 bradykinin receptor (Homo sapiens) (UniProt P30411); settings: Compound concentration 10.0 uM
[18] = target: Death-associated protein kinase 3 (Homo sapiens) (UniProt O43293); test: ZIPK(h) Millipore kinase panel; settings: Compound concentration 1.0 uM
[19] = target: Dual specificity protein kinase TTK (Homo sapiens) (UniProt P33981); test: TTK(h) Millipore kinase panel; settings: Compound concentration 1.0 uM
[20] = target: Insulin receptor (Homo sapiens) (UniProt P06213); test: IR(h) Millipore kinase panel; settings: Compound concentration 1.0 uM
Sequence of Insulin receptor (Homo sapiens) (P06213 28-758 limits assumed): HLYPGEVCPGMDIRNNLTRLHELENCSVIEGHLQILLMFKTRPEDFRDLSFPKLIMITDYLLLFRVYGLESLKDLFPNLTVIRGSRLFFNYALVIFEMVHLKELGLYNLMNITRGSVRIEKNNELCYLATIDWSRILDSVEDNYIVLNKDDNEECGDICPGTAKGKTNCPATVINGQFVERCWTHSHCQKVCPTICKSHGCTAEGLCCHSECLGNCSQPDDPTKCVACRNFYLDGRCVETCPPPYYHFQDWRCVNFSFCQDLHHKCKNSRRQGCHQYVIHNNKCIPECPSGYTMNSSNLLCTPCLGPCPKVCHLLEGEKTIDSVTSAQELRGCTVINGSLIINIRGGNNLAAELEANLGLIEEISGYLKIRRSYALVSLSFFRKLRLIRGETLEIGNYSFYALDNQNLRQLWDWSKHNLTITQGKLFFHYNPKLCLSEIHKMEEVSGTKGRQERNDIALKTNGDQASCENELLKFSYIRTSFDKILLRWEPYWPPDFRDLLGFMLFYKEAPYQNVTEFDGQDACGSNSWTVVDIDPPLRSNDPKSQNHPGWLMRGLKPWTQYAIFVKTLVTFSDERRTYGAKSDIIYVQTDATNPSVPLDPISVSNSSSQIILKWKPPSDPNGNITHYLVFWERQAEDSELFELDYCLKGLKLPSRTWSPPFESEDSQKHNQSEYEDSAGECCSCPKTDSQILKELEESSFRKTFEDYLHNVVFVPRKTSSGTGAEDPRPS
Sequence of Insulin receptor (Homo sapiens) (P06213 763-1382 limits assumed): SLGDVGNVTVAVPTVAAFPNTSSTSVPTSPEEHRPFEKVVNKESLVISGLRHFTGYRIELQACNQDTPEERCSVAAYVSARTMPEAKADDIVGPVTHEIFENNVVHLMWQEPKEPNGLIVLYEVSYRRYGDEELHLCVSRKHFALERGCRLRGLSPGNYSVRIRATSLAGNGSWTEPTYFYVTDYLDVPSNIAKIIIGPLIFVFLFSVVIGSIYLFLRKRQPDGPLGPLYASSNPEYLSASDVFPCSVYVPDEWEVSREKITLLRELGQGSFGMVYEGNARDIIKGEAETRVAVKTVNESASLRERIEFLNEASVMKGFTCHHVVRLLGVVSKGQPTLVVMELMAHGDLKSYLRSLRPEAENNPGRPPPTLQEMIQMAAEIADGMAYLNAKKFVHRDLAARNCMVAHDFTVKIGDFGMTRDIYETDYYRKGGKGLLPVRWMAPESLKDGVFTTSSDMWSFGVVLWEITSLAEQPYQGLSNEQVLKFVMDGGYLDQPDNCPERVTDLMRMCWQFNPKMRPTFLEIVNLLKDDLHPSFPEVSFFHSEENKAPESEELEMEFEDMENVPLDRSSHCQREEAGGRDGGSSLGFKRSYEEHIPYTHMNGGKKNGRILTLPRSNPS

[21] = target: MAP kinase-interacting serine/threonine-protein kinase 2 (Homo sapiens) (UniProt Q9HBH9); test: Mnk2(h) Millipore kinase panel; settings: Compound concentration 1.0 uM
Sequence of MAP kinase-interacting serine/threonine-protein kinase 2 (Homo sapiens) (Q9HBH9 whole entry, looked up): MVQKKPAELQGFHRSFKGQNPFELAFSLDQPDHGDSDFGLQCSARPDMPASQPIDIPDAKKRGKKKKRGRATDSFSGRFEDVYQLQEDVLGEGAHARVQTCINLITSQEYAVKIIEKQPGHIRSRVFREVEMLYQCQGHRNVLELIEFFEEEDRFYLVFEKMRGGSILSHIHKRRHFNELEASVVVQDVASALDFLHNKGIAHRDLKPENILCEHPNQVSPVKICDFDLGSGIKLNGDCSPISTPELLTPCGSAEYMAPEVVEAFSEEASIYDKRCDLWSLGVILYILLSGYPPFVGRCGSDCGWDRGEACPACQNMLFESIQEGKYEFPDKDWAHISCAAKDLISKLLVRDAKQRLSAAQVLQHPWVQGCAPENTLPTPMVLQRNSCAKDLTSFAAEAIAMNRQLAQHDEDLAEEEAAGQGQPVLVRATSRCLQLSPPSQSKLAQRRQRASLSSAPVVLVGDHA

[22] = target: Casein kinase II subunit alpha (Homo sapiens) (UniProt P68400); test: CK2(h) Millipore kinase panel; settings: Compound concentration 1.0 uM
Sequence of Casein kinase II subunit alpha (Homo sapiens) (P68400 whole entry, looked up): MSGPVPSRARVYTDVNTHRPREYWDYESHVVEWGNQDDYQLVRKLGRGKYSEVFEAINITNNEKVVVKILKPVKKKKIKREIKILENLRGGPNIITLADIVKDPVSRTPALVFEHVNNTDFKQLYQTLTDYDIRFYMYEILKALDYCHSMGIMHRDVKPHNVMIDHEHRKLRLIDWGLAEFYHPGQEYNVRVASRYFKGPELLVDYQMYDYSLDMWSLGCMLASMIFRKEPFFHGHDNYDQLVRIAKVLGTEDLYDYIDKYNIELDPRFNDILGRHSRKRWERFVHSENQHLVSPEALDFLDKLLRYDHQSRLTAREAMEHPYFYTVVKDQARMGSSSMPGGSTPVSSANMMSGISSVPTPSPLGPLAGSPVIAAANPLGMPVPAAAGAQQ

[23] = target: Dual specificity tyrosine-phosphorylation-regulated kinase 1B (Homo sapiens) (UniProt Q9Y463); test: DYRK1B(h) Millipore kinase panel; settings: Compound concentration 1.0 uM
[24] = target: Testis-specific serine/threonine-protein kinase 2 (Homo sapiens) (UniProt Q96PF2); test: TSSK2(h) Millipore kinase panel; settings: Compound concentration 1.0 uM
Sequence of Testis-specific serine/threonine-protein kinase 2 (Homo sapiens) (Q96PF2 whole entry): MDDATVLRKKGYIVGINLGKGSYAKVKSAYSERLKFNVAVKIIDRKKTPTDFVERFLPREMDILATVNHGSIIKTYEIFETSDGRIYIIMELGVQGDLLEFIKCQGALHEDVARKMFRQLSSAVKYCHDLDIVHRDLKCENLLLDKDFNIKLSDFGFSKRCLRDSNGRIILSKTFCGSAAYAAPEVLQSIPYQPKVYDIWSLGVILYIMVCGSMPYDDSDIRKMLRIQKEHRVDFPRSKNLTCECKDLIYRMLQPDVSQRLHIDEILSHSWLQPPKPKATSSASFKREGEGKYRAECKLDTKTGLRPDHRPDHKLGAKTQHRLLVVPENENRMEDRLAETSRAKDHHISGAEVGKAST

[25] = target: STE20/SPS1-related proline-alanine-rich protein kinase (Homo sapiens) (UniProt Q9UEW8); test: STK39(h) Millipore kinase panel; settings: Compound concentration 1.0 uM
[26] = target: Fibroblast growth factor receptor 3 (Homo sapiens) (UniProt P22607); test: FGFR3(h) Millipore kinase panel; settings: Compound concentration 1.0 uM
Sequence of Fibroblast growth factor receptor 3 (Homo sapiens) (P22607 23-806 limits assumed): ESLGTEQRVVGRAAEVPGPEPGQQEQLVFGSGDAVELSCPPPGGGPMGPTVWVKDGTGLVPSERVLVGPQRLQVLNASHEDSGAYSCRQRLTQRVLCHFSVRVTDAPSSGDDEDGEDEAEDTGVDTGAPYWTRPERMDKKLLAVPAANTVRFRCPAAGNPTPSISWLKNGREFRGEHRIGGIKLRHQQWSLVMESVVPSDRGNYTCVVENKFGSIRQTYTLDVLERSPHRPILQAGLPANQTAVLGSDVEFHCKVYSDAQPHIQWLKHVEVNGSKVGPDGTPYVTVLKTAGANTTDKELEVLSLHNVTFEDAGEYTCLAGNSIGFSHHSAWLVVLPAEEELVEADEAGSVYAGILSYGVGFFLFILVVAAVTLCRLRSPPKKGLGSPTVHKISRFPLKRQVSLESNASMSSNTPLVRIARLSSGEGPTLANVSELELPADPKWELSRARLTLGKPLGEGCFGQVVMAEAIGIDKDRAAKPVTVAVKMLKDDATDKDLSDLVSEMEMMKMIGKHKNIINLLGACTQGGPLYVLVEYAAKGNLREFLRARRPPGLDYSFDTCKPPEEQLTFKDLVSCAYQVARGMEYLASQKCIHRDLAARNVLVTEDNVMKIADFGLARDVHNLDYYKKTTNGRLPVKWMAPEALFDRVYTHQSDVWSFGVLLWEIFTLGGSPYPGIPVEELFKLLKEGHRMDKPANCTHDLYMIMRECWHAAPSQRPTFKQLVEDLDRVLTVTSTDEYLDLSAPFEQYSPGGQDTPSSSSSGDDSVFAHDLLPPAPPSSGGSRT

[27] = target: Serine/threonine-protein kinase mTOR (Homo sapiens) (UniProt P42345); test: mTOR(h) Millipore kinase panel; settings: Compound concentration 1.0 uM
[28] = target: Phosphatidylinositol 4-phosphate 5-kinase type-1 alpha (Homo sapiens) (UniProt Q99755); test: PIP5K1a(h) Millipore kinase panel; settings: Compound concentration 1.0 uM
[29] = target: Histamine H3 receptor (Homo sapiens) (UniProt Q9Y5N1); settings: Compound concentration 10.0 uM
[30] = target: T2, Alpha-2C adrenergic receptor (Homo sapiens) (UniProt P18825); settings: Compound concentration 10.0 uM
T2 sequence (whole entry): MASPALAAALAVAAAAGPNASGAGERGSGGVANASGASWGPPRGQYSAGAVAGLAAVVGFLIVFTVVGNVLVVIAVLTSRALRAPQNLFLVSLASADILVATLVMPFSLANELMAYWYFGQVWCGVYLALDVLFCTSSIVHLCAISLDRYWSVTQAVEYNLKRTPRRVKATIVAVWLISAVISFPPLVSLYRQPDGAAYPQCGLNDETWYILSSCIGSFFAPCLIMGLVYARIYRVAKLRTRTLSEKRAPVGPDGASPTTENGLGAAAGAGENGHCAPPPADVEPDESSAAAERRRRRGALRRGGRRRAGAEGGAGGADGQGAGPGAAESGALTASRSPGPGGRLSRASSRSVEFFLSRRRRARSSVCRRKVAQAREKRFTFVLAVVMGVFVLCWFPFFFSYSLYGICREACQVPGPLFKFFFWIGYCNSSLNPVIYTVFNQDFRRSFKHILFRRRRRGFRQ

`CC[C@@H](Nc1c(C#N)c(-c2ccc(-c3cccc(C)c3F)cc2)nc2cnccc12)C(=O)O` [BAY-091] was tested, and the inhibition [1] was 10.4%, the inhibition [2] was 74% and the inhibition [3] was -1.14%. The inhibition [4] was -3.68%, the inhibition [5] was 142% and the inhibition [6] was 4.51%. For the same molecule, the Ki [7] was 6.83 µM, the inhibition [8] was 0.33% and the inhibition [9] was 22.3%. It also gave an inhibition [10] of 10.8%, an inhibition [11] of 13.8% and an inhibition [12] of 11.3%. For the same molecule, the inhibition [13] was 4.1%, the inhibition [14] was -9.98% and the inhibition [15] was 3.83%. The inhibition [16] was -4.26%, the inhibition [17] was 1% and the inhibition [18] was 0.91%. The inhibition [19] was -9.1%, the inhibition [20] was -2.92% and the inhibition [21] was 3.39%. The inhibition [22] was 4.66%, the inhibition [23] was 12.1% and the inhibition [24] was -1.97%. For the same molecule, the inhibition [25] was 5.6%, the inhibition [26] was -1% and the inhibition [27] was 14.8%. The inhibition [28] was 10%, the inhibition [29] was -3.06% and the inhibition [30] was 4%.
